Values quoted from earlier work in PMC12650809, “Evolving Therapeutic Landscape of ROS1-Positive Non-Small Cell Lung Cancer: An Updated Review” (Current Oncology, 2025).
Like-named read-outs stand apart in the source and are kept apart here. Marks after values point to notes of the source that are not given here.

Tests used:
[1] = system: ROS1-positive NSCLC; parameters: method as in PMID 28520527
[2] = system: ROS1-positive NSCLC; conditions: for TKI-Naive ORR (%) / mPFS (Months): TKI-naïve patients; for IC-ORR (%): TKI-naïve patients evaluable for intracranial ORR
[3] = system: advanced ROS1-positive NSCLC
[4] = system: ROS1-positive NSCLC; parameters: method as in PMID 29596029; conditions: 127 patients
[5] = system: ROS1-positive NSCLC; parameters: method as in PMID 31584608
[6] = system: ROS1-positive NSCLC; parameters: method as in PMID 30978502; conditions: 34 patients
[7] = system: ROS1^L2086F; parameters: method as in PMID 38070596; conditions: for resistance or sensitivity conferred by ROS1^L2086F: L2086F alone or in combination with G2032R or S1986F, preclinical models; for resistance or activity with L2086F: ATP-binding pocket
[8] = system: ROS1^G2032R; parameters: method as in PMID 38070596; conditions: solvent-front substitution
[9] = system: ROS1-positive NSCLC
[10] = system: advanced ROS1-positive NSCLC; remark: listed apart in the source
[11] = system: advanced ROS1-positive NSCLC; parameters: method as in PMID 31669155
[12] = system: ROS1-positive NSCLC; parameters: method as in doi:10.1200/JCO.2024.42.16_suppl.8519; conditions: 32 TKI-naïve patients
[13] = system: ROS1-positive NSCLC; parameters: method as in PMID 35227966
[14] = system: ROS1-positive NSCLC; parameters: method as in earlier work; conditions: WCLC 2025 Abstract 4540
[15] = system: ROS1-positive NSCLC; remark: listed apart in the source
[16] = eight patients with baseline BMs
[17] = isolated intracranial progression on crizotinib, n = 18
[18] = previously treated with crizotinib
[19] = after at least one prior ROS1-targeted TKI
[20] = 13 patients harboring ROS1^G2032R
[21] = previously treated with a ROS1 TKI, n = 113

## Cc1cc(Nc2ncc(Cl)c(Nc3ccccc3S(=O)(=O)C(C)C)n2)c(OC(C)C)cc1C1CCNCC1 [Ceritinib, ceritinib]
[1]
  dose reductions required: 68%
[1]; 32 patients
  ORR: 62%
  median DOR: 21 months
[1]; AEs, predominantly grade 1–2
  anorexia: 56%
  diarrhea: 85%
  nausea: 72%
  vomiting: 45%
[1]; crizotinib-naïve patients
  ORR: 67%
  median OS: 24 months
  median PFS: 19.3 months
[1]; [16]
  CNS disease control rate: 63%
  patients achieving an objective intracranial response: two
[2]
  TKI-Naive ORR (%): 67%
  mPFS (Months): 19.3 Months
  IC-ORR (%): 25 ^b %

## C[C@@H](Oc1cc(-c2cnn(C3CCNCC3)c2)cnc1N)c1c(Cl)ccc(F)c1Cl [Crizotinib, crizotinib]
[3]
  4-year survival probability: 51%
  AEs leading to permanent treatment discontinuation: No AEs led to permanent treatment discontinuation
  grade 4 or 5 events: no grade 4 or 5 events
  median PFS: 19.3 months
  median duration of response (DOR): 24.7 months
  median overall survival (OS): 51.4 months
  median time to response: 7.9 weeks
[3]; 53 patients
  ORR: 72%
  complete responses (number): 6
  partial responses (number): 32
[3]; treatment-related AEs
  diarrhea: 44%
  nausea: 40%
  peripheral edema: 40%
  visual disturbances: 82%
[4]
  ORR: 72%
  median PFS: 15.9 months
[5]
  ORR: 69.4%
  median PFS: 5.5 months
[6]
  ORR: 70%
  median PFS: 20 months
[2]
  TKI-Naive ORR (%): 72%
[7]
  resistance or sensitivity conferred by ROS1^L2086F: cross-resistance
[8]
  resistance or sensitivity with ROS1^G2032R: high-level resistance
[9]
  Notable AEs: diarrhea: 44%
  Notable AEs: nausea: 40%
  Notable AEs: visual disturbances: 82%
[9]; WCLC 2025 Abstract 4540
  Discontinuation for AEs (%): <1%
  Notable AEs: peripheral edema: 40%
[9]; grade ≥ 3
  Main Grade ≥ 3 AEs: hypophosphatemia: Hypophosphatemia (10%), neutropenia (10%)
  Main Grade ≥ 3 AEs: neutropenia: Hypophosphatemia (10%), neutropenia (10%)

## CN1CCN(c2ccc(C(=O)Nc3n[nH]c4ccc(Cc5cc(F)cc(F)c5)cc34)c(NC3CCOCC3)c2)CC1 [Entrectinib, entrectinib]
[10]; 168 TKI-naïve patients
  ORR: 68%
  complete responses: 13%
  median DOR: 20.5 months
  median OS: 47.8 months
  median PFS: 15.7 months
[10]; baseline BMs
  median intracranial DOR: 12.9 months
[10]; baseline BMs with measurable disease
  intracranial ORR: 80%
[10]; [17]
  global ORR: 11%
  intracranial ORR: 19%
  median PFS: 4.7 months
[2]
  TKI-Naive ORR (%): 68%
  mPFS (Months): 15.7 Months
  IC-ORR (%): 80 ^a %
[7]
  resistance or sensitivity conferred by ROS1^L2086F: cross-resistance
[8]
  resistance or sensitivity with ROS1^G2032R: high-level resistance

## C[C@H]1Oc2cc(cnc2N)-c2c(nn(C)c2C#N)CN(C)C(=O)c2ccc(F)cc21 [Lorlatinib, lorlatinib]
[11]; 21 TKI-naïve patients
  ORR: 62%
[11]; TKI-naïve patients
  median DOR: 25.3 months
  median PFS: 21.0 months
[11]; TKI-naïve, BMs at baseline
  intracranial ORR: 64%
[11]; patients with secondary resistance mutations to crizotinib
  efficacy against ROS1^G2032R mutation: limited efficacy
[11]; pivotal trial
  treatment discontinuation due to AEs: 1%
[11]; [18]
  ORR: 35%
  intracranial ORR: 50%
  median DOR: 13.8 months
[11]; secondary resistance mutations to crizotinib
  activity in patients harboring ROS1^K1991E and ROS1^S1986F mutations: showed activity in some patients
[12]
  ORR: 69%
  median PFS: 35.8 months
[13]; 80 patients after at least one prior ROS1-targeted TKI
  ORR: 45%
[13]; [19]
  intracranial ORR: 72%
  median OS: 19.6 months
  median PFS: 7.1 months
[13]; non-irradiated brain metastases
  median intracranial DOR: 20.6 months
[13]; real-world cohort
  treatment discontinuation due to AEs: 13%
[14]; TKI-pretreated patients with G2032R
  ORR if G2032R Mutation (%): 0%
[14]; TKI-pretreated patients
  IC-ORR (%): 50%
  mPFS (Months): 8.5 Months
[7]
  resistance or sensitivity conferred by ROS1^L2086F: cross-resistance
[8]
  resistance or sensitivity with ROS1^G2032R: high-level resistance
[9]
  Notable AEs: cognitive effects: 27%
  Notable AEs: dizziness: 12%
  Notable AEs: hypercholesterolemia: 80%
  Notable AEs: mood disorders: 16%
  Notable AEs: weight gain: 23%
[9]; WCLC 2025 Abstract 4540
  Discontinuation for AEs (%): 1%
[9]; grade ≥ 3
  Main Grade ≥ 3 AEs: hypercholesterolemia: 15%
  Main Grade ≥ 3 AEs: hypertriglyceridemia: 19%
  Main Grade ≥ 3 AEs: weight gain: 7%

## C[C@@H](N)COc1ccc(-c2cnc3ccc(N[C@H](C)c4cccc(F)c4)nn23)cc1 [Taletrectinib, taletrectinib]
[15]
  rate of treatment discontinuation due to toxicity: 6.5%
[15]; [20]
  objective response rate: 61.5%
  patients with objective response (number): 8
[15]; AEs, predominantly grade 1
  diarrhea: 61%
  nausea: 44%
  transaminase elevation: 70%
[15]; TKI-naïve patients, n = 160
  confirmed ORR: 88.8%
  median DOR: 44.2 months
  median PFS: 45.6 months
[15]; TKI-naïve, measurable BMs
  intracranial ORR: 76.5%
  median intracranial DOR: 14.7 months
[15]; neurological events
  dizziness: 21%
  dysgeusia: 15%
[15]; previously treated with a ROS1 TKI
  intracranial ORR: 65.6%
[15]; [21]
  ORR: 55.8%
  median DOR: 16.6 months
  median PFS: 9.7 months
[2]
  TKI-Naive ORR (%): 88.8%
  mPFS (Months): 45.6 Months
  IC-ORR (%): 76.5 ^e %
[14]; TKI-pretreated patients
  IC-ORR (%): 65.6%
  TKI-Pretreated ORR (%): 55.8%
  mPFS (Months): 9.7 Months
[7]
  resistance or activity with L2086F: cross-resistance
[8]
  resistance or sensitivity with ROS1^G2032R: some sensitivity
[9]
  Notable AEs: QT prolongation: 18%
  Notable AEs: diarrhea: 61%
  Notable AEs: dizziness: 15%
  Notable AEs: increased AST/ALT: 70%
  Notable AEs: nausea: 44%
  Notable AEs: vomiting: 41%
[9]; grade ≥ 3
  Main Grade ≥ 3 AEs: QT prolongation: 3%
  Main Grade ≥ 3 AEs: anemia: 3%
  Main Grade ≥ 3 AEs: diarrhea: 3%
  Main Grade ≥ 3 AEs: increased AST/ALT: 9%
  Main Grade ≥ 3 AEs: neutropenia: 4%

## COc1cc2nccc(Oc3ccc(NC(=O)C4(C(=O)Nc5ccc(F)cc5)CC4)cc3)c2cc1OC [cabozantinib]
[7]
  resistance or sensitivity conferred by ROS1^L2086F: potentially retaining sensitivity
  resistance or activity with L2086F: preclinical efficacy

## CCc1nc(C(N)=O)c(Nc2ccc(N3CCC(N4CCN(C)CC4)CC3)c(OC)c2)nc1NC1CCOCC1 [gilteritinib]
[7]
  resistance or activity with L2086F: preclinical efficacy
